Consider 34 compounds from patent US9902696B2, “1,4-substituted piperidine derivatives” (Cephalon, Inc., priority 2015, dated 2018).

T1 sequence (P49327 whole entry): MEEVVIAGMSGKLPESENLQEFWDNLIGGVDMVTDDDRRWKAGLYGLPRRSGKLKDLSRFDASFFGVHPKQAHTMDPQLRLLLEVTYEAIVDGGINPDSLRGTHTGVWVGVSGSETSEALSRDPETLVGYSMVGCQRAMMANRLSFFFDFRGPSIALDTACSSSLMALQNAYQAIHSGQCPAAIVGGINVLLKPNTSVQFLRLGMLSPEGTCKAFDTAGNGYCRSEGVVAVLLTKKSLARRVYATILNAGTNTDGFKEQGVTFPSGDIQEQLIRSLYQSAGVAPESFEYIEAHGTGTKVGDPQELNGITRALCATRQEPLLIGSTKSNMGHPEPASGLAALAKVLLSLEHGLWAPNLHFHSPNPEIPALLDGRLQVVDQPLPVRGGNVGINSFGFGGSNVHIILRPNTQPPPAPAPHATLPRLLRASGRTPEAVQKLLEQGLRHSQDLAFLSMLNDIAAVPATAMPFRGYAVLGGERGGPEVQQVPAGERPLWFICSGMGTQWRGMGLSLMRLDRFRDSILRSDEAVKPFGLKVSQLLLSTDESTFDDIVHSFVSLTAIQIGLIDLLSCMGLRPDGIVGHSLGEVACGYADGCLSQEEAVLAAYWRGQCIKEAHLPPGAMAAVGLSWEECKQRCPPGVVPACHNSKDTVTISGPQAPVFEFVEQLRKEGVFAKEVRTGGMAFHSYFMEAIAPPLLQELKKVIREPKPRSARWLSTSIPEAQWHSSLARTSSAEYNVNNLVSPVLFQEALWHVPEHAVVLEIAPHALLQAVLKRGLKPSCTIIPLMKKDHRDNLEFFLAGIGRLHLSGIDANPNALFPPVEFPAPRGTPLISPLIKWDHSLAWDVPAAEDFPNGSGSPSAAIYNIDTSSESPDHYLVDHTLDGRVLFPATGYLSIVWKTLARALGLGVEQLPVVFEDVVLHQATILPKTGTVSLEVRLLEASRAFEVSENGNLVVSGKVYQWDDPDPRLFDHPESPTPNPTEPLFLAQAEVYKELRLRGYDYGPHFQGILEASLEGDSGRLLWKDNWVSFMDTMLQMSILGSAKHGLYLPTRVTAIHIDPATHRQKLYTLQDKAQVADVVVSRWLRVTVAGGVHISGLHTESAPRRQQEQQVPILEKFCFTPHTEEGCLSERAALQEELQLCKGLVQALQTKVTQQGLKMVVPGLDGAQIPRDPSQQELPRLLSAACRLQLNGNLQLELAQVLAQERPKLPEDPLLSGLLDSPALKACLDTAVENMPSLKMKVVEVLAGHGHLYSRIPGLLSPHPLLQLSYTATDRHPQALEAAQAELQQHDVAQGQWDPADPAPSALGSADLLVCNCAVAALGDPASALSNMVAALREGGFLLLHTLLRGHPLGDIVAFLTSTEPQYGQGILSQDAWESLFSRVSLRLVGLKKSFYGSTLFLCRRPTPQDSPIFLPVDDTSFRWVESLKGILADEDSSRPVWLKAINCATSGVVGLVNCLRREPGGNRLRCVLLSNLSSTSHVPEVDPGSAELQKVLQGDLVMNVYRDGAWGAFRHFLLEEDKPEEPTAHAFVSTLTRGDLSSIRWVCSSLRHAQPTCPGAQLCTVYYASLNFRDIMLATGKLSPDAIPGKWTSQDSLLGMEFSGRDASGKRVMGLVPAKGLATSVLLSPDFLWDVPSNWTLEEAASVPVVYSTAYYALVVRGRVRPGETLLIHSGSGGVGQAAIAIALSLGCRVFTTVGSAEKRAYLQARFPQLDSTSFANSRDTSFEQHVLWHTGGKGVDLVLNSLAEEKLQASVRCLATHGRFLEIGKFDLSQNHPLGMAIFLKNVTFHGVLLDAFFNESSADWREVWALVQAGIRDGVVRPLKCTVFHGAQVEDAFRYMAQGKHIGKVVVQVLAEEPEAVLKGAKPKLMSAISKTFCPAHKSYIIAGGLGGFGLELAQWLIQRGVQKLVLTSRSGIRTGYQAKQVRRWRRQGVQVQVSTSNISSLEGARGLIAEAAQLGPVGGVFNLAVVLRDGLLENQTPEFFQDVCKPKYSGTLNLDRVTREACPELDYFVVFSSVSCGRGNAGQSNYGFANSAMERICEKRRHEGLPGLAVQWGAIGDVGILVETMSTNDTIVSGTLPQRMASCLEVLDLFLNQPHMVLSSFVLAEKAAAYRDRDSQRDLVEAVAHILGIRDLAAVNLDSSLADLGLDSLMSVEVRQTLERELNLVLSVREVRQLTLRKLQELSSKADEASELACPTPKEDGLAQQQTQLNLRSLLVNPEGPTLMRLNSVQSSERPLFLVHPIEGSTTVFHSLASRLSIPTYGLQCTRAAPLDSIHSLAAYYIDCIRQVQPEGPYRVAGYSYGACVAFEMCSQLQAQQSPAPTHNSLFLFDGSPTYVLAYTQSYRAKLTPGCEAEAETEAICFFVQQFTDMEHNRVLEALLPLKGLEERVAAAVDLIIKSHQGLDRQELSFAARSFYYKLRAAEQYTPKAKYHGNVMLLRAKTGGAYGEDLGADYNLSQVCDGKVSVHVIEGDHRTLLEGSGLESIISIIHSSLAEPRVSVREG

The experiment has as its target T1, recombinant human baculovirus-expressed GST-tagged FASN (Homo sapiens, UniProt P49327).
T1 construct: GST
Briefly: FASN enzyme activity assay, fluorescence-based detection of CoA with CPM. The experiment is classed as biochemical. The conditions noted are these: 5 nM FASN, 150 μM NADPH, 10 μM acetyl-CoA, 25 μM malonyl-CoA, 90 minutes incubation; read-out: IC50 data for Compounds of Formulae I-V/V(a): Activity. Put shortly: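 Human GST-tagged FASN, baculovirus-expressed (5 nM), in 50 mM HEPES pH 7.5 with 150 μM NADPH, 10 μM acetyl-CoA, 25 μM malonyl-CoA, 0.5% DMSO; malonyl-CoA-started, 90 min. Released CoA detected with CPM (50 μM dilution), 30 min, fluorescence ex 390/em 530. IC50 from variable-slope sigmoidal fit of % inhibition versus log concentration.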
Regarding `Cc1c(-c2ccc(OC3CCN(C(=O)C4(CO)CC4)CC3)cc2)ccc2nccn12` [Example 304, (1-Hydroxymethylcyclopropyl)-{4-[4-(5-methyl-imidazo[1,2-a]pyridin-6-yl)-phenoxy]-piperidin-1-yl}-methanone], the IC50 was 1000 to 10000 nM. As for `Cc1c(-c2ccc(OC3CCN(C(=O)C4(N)CC4)CC3)cc2)ccc2nccn12` [Example 305, (1-Aminocyclopropyl)-{4-[4-(5-methyl-imidazo[1,2-a]pyridin-6-yl)-phenoxy]-piperidin-1-yl}-methanone], the figure is 100 to 999 nM; as for `O=C(N1CCC(Oc2ccc(-c3ccn4cnnc4c3)cc2)CC1)C1(O)CC1` [Example 306, (1-Hydroxycyclopropyl)-[4-(4-[1,2,4]triazolo[4,3-a]pyridin-7-yl-phenoxy)-piperidin-1-yl]-methanone], 1000 to 10000 nM. As for `O=C([C@H]1CCCO1)N1CCC(Oc2ccc(-c3ccn4cnnc4c3)cc2)CC1` [Example 307, (R)-Tetrahydrofuran-2-yl-[4-(4-[1,2,4]triazolo[4,3-a]pyridin-7-yl-phenoxy)-piperidin-1-yl]-methanone], the figure is 100 to 999 nM; as for `O=C(C1CC1)N1CCC(Oc2ccc(-c3ccn4cnnc4c3)cc2)CC1` [Example 308, Cyclopropyl-[4-(4-[1,2,4]triazolo[4,3-a]pyridin-7-yl-phenoxy)-piperidin-1-yl]-methanone], 1000 to 10000 nM; as for `Cc1c(-c2ccc(OC3CCN(C(=O)C4(O)CC4)CC3)cc2)ccc2nccn12` [Example 309, (1-Hydroxycyclopropyl)-{4-[4-(5-methyl-imidazo[1,2-a]pyridin-6-yl)-phenoxy]-piperidin-1-yl}-methanone], 1 to 99 nM. As for `Cc1c(-c2ccc(OC3CCN(C(=O)C(C)(C)O)CC3)cc2)ccc2nccn12` [Example 310, 2-Hydroxy-2-methyl-1-{4-[4-(5-methyl-imidazo[1,2-a]pyridin-6-yl)-phenoxy]-piperidin-1-yl}-propan-1-one], the figure is 1000 to 10000 nM; as for `Cc1c(-c2ccc(OC3CCN(C(=O)[C@H]4CCCO4)CC3)cc2)ccc2ncnn12` [Example 311, {4-[4-(5-Methyl-[1,2,4]triazolo[1,5-a]pyridin-6-yl)-phenoxy]-piperidin-1-yl}-(R)-tetrahydrofuran-2-yl-methanone], 1 to 99 nM; as for `Cc1c(-c2ccc(OC3CCN(C(=O)C4(O)CC4)CC3)cc2)ccc2ncnn12` [Example 312, (1-Hydroxycyclopropyl)-{4-[4-(5-methyl-[1,2,4]triazolo[1,5-a]pyridin-6-yl)-phenoxy]-piperidin-1-yl}-methanone], 100 to 999 nM.

With `CCC(=O)N1CCC(Oc2ccc(-c3ccc4ncnn4c3C)cc2)CC1` [Example 313, 1-{4-[4-(5-Methyl-[1,2,4]triazolo[1,5-a]pyridin-6-yl)-phenoxy]-piperidin-1-yl}-propan-1-one], the IC50 is 1000 to 10000 nM.

`Cc1c(-c2ccc(OC3CCN(C(=O)C4CC4)CC3)cc2)ccc2ncnn12` [Example 314, Cyclopropyl-{4-[4-(5-methyl-[1,2,4]triazolo[1,5-a]pyridin-6-yl)-phenoxy]-piperidin-1-yl}-methanone]: the IC50 is 1000 to 10000 nM. Turning to `Cc1c(-c2ccc(OC3CCN(C(=O)C4(C(F)(F)F)CC4)CC3)cc2)ccc2cccnc12` [Example 315, {4-[4-(8-Methylquinolin-7-yl)-phenoxy]-piperidin-1-yl}-(1-trifluoro-methylcyclopropyl)-methanone], the IC50 lay within 1000 to 10000 nM. In the case of `Cc1c(-c2ccc(OC3CCN(C(=O)C4(N)CC4)CC3)cc2)ccc2cccnc12` [Example 316, (1-Aminocyclopropyl)-{4-[4-(8-methyl-quinolin-7-yl)-phenoxy]-piperidin-1-yl}-methanone] it was 1 to 99 nM. In the case of `Cn1ncc2ccc(-c3ccc(OC4CCN(C(=O)[C@H]5CCCO5)CC4)cc3)cc21` [Example 317, {4-[4-(1-Methyl-1H-indazol-6-yl)-phenoxy]-piperidin-1-yl}-(R)-tetrahydrofuran-2-yl-methanone; compound with trifluoroacetic acid] it was 1 to 99 nM; in that of `O=C([C@H]1CCCO1)N1CCC(Oc2ccc(-c3ccc4nccn4c3)cc2)CC1` [Example 318, [4-(4-Imidazo[1,2-a]pyridin-6-yl-phenoxy)-piperidin-1-yl]-(R)-tetrahydro-furan-2-yl-methanone; compound with trifluoroacetic acid], 1 to 99 nM; in that of `Cc1c(-c2ccc(OC3CCN(C(=O)C4(C#N)CC4)CC3)cc2)ccc2cccnc12` [Example 319, 1-{4-[4-(8-Methylquinolin-7-yl)-phenoxy]-piperidine-1-carbonyl}-cyclopropanecarbonitrile], 1000 to 10000 nM. On to `Cc1c(-c2ccc(OC3CCN(C(=O)C4(C)CC4)CC3)cc2)ccc2cccnc12` [Example 320, (1-Methylcyclopropyl)-{4-[4-(8-methyl-quinolin-7-yl)-phenoxy]-piperidin-1-yl}-methanone], for which the IC50 was in the range of 1 to 99 nM.

Turning to `Cc1c(-c2ccc(OC3CCN(C(=O)[C@H]4CC4(C)C)CC3)cc2)ccc2cccnc12` [Example 321, ((S)-2,2-Dimethylcyclopropyl)-{4-[4-(8-methyl-quinolin-7-yl)-phenoxy]-piperidin-1-yl}-methanone], the IC50 lay within 100 to 999 nM. Consider `Cc1c(-c2ccc(OC3CCN(C(=O)C4CC4(C)C)CC3)cc2)ccc2cccnc12` (stereo not shown) [Example 322, (2,2-Dimethylcyclopropyl)-{4-[4-(8-methyl-quinolin-7-yl)-phenoxy]-piperidin-1-yl}-methanone], for which the IC50 is 1 to 99 nM.

As to `CN1CCN(c2c(-c3ccc(OC4CCN(C(=O)[C@H]5CCCO5)CC4)cc3)ccc3cccnc23)CC1` [Example 323, [4-[4-[8-(4-Methylpiperazin-1-yl)-7-quinolyl]phenoxy]-1-piperidyl]-[(2R)-tetrahydrofuran-2-yl]methanone], the IC50 lay in the range of 1000 to 10000 nM. In the case of `Nc1c(-c2ccc(OC3CCN(C(=O)[C@H]4CCCO4)CC3)cc2)ccc2cccnc12` [Example 324, [4-[4-(8-Amino-7-quinolyl)phenoxy]-1-piperidyl]-[(2R)-tetrahydrofuran-2-yl]methanone], the IC50 was in the range of 1 to 99 nM. In the case of `CNc1c(-c2ccc(OC3CCN(C(=O)[C@H]4CCCO4)CC3)cc2)ccc2cccnc12` [Example 325, {4-[4-(8-Methylaminoquinolin-7-yl)-phenoxy]-piperidin-1-yl}-(R)-tetrahydrofuran-2-yl-methanone] it was 1 to 99 nM. In the case of `CCC(=O)N1CCC(Oc2ccc(-c3ccc4cccnc4c3NC)cc2)CC1` [Example 326, 1-{4-[4-(8-Methylaminoquinolin-7-yl)-phenoxy]-piperidin-1-yl}-propan-1-one], the IC50 lay within 100 to 999 nM. As to `COCCNc1c(-c2ccc(OC3CCN(C(=O)[C@H]4CCCO4)CC3)cc2)ccc2cccnc12` [Example 327, (4-{4-[8-(2-Methoxyethylamino)-quinolin-7-yl]-phenoxy}-piperidin-1-yl)-(R)-tetrahydrofuran-2-yl-methanone], the IC50 was 1 to 99 nM. In the case of `CCC(=O)N1CCC(Oc2ccc(-c3ccc4cccnc4c3NCCOC)cc2)CC1` [Example 328, 1-(4-{4-[8-(2-Methoxyethylamino)-quinolin-7-yl]-phenoxy}-piperidin-1-yl)-propan-1-one] it was 100 to 999 nM.

Regarding `CN(C)CCNc1c(-c2ccc(OC3CCN(C(=O)[C@H]4CCCO4)CC3)cc2)ccc2cccnc12` [Example 329, (4-{4-[8-(2-Dimethylaminoethylamino)-quinolin-7-yl]-phenoxy}-piperidin-1-yl)-(R)tetrahydrofuran-2-yl-methanone], the IC50 is 1 to 99 nM. In the case of `CCC(=O)N1CCC(Oc2ccc(-c3ccc4cccnc4c3C#N)cc2)CC1` [Example 330, 7-[4-(1-Propionyl-piperidin-4-yloxy)-phenyl]-quinoline-8-carbonitrile] it was 100 to 999 nM; in that of `CN(C)c1c(-c2ccc(OC3CCN(C(=O)[C@H]4CCCO4)CC3)cc2)ccc2cccnc12` [Example 331, [4-[4-[8-(Dimethylamino)-7-quinolyl]phenoxy]-1-piperidyl]-[(2R)-tetrahydro-furan-2-yl]methanone], 1 to 99 nM; in that of `CCC(=O)N1CCC(Oc2ccc(-c3ccc4cccnc4c3N(C)C)cc2)CC1` [Example 332, 1-{4-[4-(8-Dimethylaminoquinolin-7-yl)-phenoxy]-piperidin-1-yl}-propan-1-one], 1000 to 10000 nM.

Consider `CN(C)c1c(-c2ccc(OC3CCN(C(=O)C4CC4)CC3)cc2)ccc2cccnc12` [Example 333, Cyclopropyl-{4-[4-(8-dimethylamino-quinolin-7-yl)-phenoxy]-piperidin-1-yl}-methanone], for which the IC50 lay in the range of 1000 to 10000 nM. As for `O=C([C@H]1CCCO1)N1CCC(Oc2ccc(-c3ccc4cccnc4c3NCCN3CCCC3)cc2)CC1` [Example 334, (4-{4-[8-(2-Pyrrolidin-1-yl-ethylamino)-quinolin-7-yl]-phenoxy}-piperidin-1-yl)-(R)-tetrahydrofuran-2-yl-methanone], the figure is 100 to 999 nM; as for `CCC(=O)N1CCC(Oc2ccc(-c3ccc4cccnc4c3NCCN3CCCC3)cc2)CC1` [Example 335, 1-(4-{4-[8-(2-Pyrrolidin-1-yl-ethylamino)-quinolin-7-yl]-phenoxy}-piperidin-1-yl)-propan-1-one], 1000 to 10000 nM; as for `NC(=O)c1c(-c2ccc(OC3CCN(C(=O)[C@H]4CCCO4)CC3)cc2)ccc2cccnc12` [Example 336, 7-[4-[[1-[(2R)-Tetrahydrofuran-2-carbonyl]-4 piperidyl]oxy]phenyl]quinoline-8-carboxamide], 100 to 999 nM. In the case of `CCC(=O)N1CCC(Oc2ccc(-c3ccc4cccnc4c3C(N)=O)cc2)CC1` [Example 337, 7-[4-(1-Propionyl-piperidin-4-yloxy)-phenyl]-quinoline-8-carboxylic acid amide] it was 1000 to 10000 nM.
